Measured values reported in the NIST ThermoML archive (doi:10.1016/j.fluid.2014.11.020).
± gives the expanded uncertainty stated by the source.

Assay: activity coefficient (dimensionless); of the first substance listed, at infinite dilution; xn = mol fraction of the nth substance listed
Conditions: Liquid, Chromatography, x1 = 0

SMILES | activity coefficient (323.15 K) | activity coefficient (333.15 K) | activity coefficient (343.15 K)
CCO [ethanol] + N#C[N-]C#N.N#C[N-]C#N.c1ccc(Cn2cc[n+](COCCCOC[n+]3ccn(Cc4ccccc4)c3)c2)cc1 | 0.94 ± 0.06 | 0.89 ± 0.06 | 0.86 ± 0.06
CCc1ccccc1 [ethylbenzene] + CCCCCCCCn1cc[n+](COCCC)c1C.N#C[N-]C#N | 1.48 ± 0.1 | 1.5 ± 0.1 | 1.54 ± 0.1
CCc1ccccc1 [ethylbenzene] + CCCCCCCCn1cc[n+](COCCC)c1C.O=S(=O)([N-]S(=O)(=O)C(F)(F)F)C(F)(F)F | 1.01 ± 0.06 | 1.03 ± 0.06 | 1.04 ± 0.07
CCc1ccccc1 [ethylbenzene] + CCCCCCCCn1cc[n+](COCCCOC[n+]2ccn(CCCCCCCC)c2C)c1C.N#C[N-]C#N.N#C[N-]C#N | 1.32 ± 0.09 | 1.34 ± 0.09 | 1.36 ± 0.09
CCc1ccccc1 [ethylbenzene] + CCCCCCCCn1cc[n+](COCCCOC[n+]2ccn(CCCCCCCC)c2C)c1C.O=S(=O)([N-]S(=O)(=O)C(F)(F)F)C(F)(F)F.O=S(=O)([N-]S(=O)(=O)C(F)(F)F)C(F)(F)F | 0.75 ± 0.05 | 0.73 ± 0.05 | 0.74 ± 0.05
CCc1ccccc1 [ethylbenzene] + CCCOC[n+]1ccc(N(C)C)cc1.O=S(=O)([N-]S(=O)(=O)C(F)(F)F)C(F)(F)F | 1.45 ± 0.1 | 1.53 ± 0.1 | 1.53 ± 0.1
CCc1ccccc1 [ethylbenzene] + CCCOC[n+]1ccn(C)c1.F[B-](F)(F)F | 11 ± 0.75 | 10.8 ± 0.74 | 10.7 ± 0.73
CCc1ccccc1 [ethylbenzene] + CCCOC[n+]1ccn(C)c1.N#C[N-]C#N | 6 ± 0.41 | 6.06 ± 0.41 | 6.12 ± 0.42
CCc1ccccc1 [ethylbenzene] + CCCOC[n+]1ccn(C)c1.O=S(=O)([N-]S(=O)(=O)C(F)(F)F)C(F)(F)F | 2.55 ± 0.17 | 2.51 ± 0.17 | 2.51 ± 0.17
CCc1ccccc1 [ethylbenzene] + CCCOC[n+]1ccn(Cc2ccccc2)c1.F[B-](F)(F)F | 4.89 ± 0.33 | 4.71 ± 0.32 | 4.73 ± 0.32
CCc1ccccc1 [ethylbenzene] + CCCOC[n+]1ccn(Cc2ccccc2)c1.N#C[N-]C#N | 3.41 ± 0.23 | 3.36 ± 0.23 | 3.32 ± 0.23
CCc1ccccc1 [ethylbenzene] + CCCOC[n+]1ccn(Cc2ccccc2)c1.O=S(=O)([N-]S(=O)(=O)C(F)(F)F)C(F)(F)F | 1.5 ± 0.1 | 1.33 ± 0.09 | 1.32 ± 0.09
CCc1ccccc1 [ethylbenzene] + CN(C)c1cc[n+](COCCCOC[n+]2ccc(N(C)C)cc2)cc1.O=S(=O)([N-]S(=O)(=O)C(F)(F)F)C(F)(F)F.O=S(=O)([N-]S(=O)(=O)C(F)(F)F)C(F)(F)F | 1.46 ± 0.1 | 1.49 ± 0.1 | 1.5 ± 0.1
CCc1ccccc1 [ethylbenzene] + Cn1cc[n+](COCCCOC[n+]2ccn(C)c2)c1.N#C[N-]C#N.N#C[N-]C#N | 11.2 ± 0.77 | 10.9 ± 0.75 | 10.7 ± 0.73
CCc1ccccc1 [ethylbenzene] + Cn1cc[n+](COCCCOC[n+]2ccn(C)c2)c1.O=S(=O)([N-]S(=O)(=O)C(F)(F)F)C(F)(F)F.O=S(=O)([N-]S(=O)(=O)C(F)(F)F)C(F)(F)F | 2.41 ± 0.16 | 2.44 ± 0.17 | 2.38 ± 0.16
CCc1ccccc1 [ethylbenzene] + N#C[N-]C#N.N#C[N-]C#N.c1ccc(Cn2cc[n+](COCCCOC[n+]3ccn(Cc4ccccc4)c3)c2)cc1 | 8.33 ± 0.57 | 8.08 ± 0.55 | 7.78 ± 0.53
CCCCCCC [heptane] + CCCCCCCCn1cc[n+](COCCC)c1C.N#C[N-]C#N | 8.88 ± 0.61 | 8.18 ± 0.56 | 7.95 ± 0.54
CCCCCCC [heptane] + CCCCCCCCn1cc[n+](COCCC)c1C.O=S(=O)([N-]S(=O)(=O)C(F)(F)F)C(F)(F)F | 4.64 ± 0.32 | 4.56 ± 0.31 | 3.98 ± 0.27
CCCCCCC [heptane] + CCCCCCCCn1cc[n+](COCCCOC[n+]2ccn(CCCCCCCC)c2C)c1C.N#C[N-]C#N.N#C[N-]C#N | 11.6 ± 0.79 | 8.65 ± 0.59 | 8.8 ± 0.6
CCCCCCC [heptane] + CCCCCCCCn1cc[n+](COCCCOC[n+]2ccn(CCCCCCCC)c2C)c1C.O=S(=O)([N-]S(=O)(=O)C(F)(F)F)C(F)(F)F.O=S(=O)([N-]S(=O)(=O)C(F)(F)F)C(F)(F)F | 4.67 ± 0.32 | 4.51 ± 0.31 | 4.49 ± 0.31
CCCCCCC [heptane] + CCCOC[n+]1ccc(N(C)C)cc1.O=S(=O)([N-]S(=O)(=O)C(F)(F)F)C(F)(F)F | 15.8 ± 1.1 | 14.8 ± 1 | 13.9 ± 0.95
CCCCCCC [heptane] + CCCOC[n+]1ccn(C)c1.O=S(=O)([N-]S(=O)(=O)C(F)(F)F)C(F)(F)F | 22.9 ± 1.6 | 20.4 ± 1.4 | 17.1 ± 1.2
CCCCCCC [heptane] + CCCOC[n+]1ccn(Cc2ccccc2)c1.N#C[N-]C#N | 48 ± 3.3 | 44.9 ± 3.1 | 41.8 ± 2.9

SMILES | activity coefficient (323.15 K) | activity coefficient (333.15 K) | activity coefficient (343.15 K)
CCCCCCC [heptane] + CCCOC[n+]1ccn(Cc2ccccc2)c1.O=S(=O)([N-]S(=O)(=O)C(F)(F)F)C(F)(F)F | 12 ± 0.82 | 10.1 ± 0.69 | 9.58 ± 0.65
CCCCCCC [heptane] + CN(C)c1cc[n+](COCCCOC[n+]2ccc(N(C)C)cc2)cc1.O=S(=O)([N-]S(=O)(=O)C(F)(F)F)C(F)(F)F.O=S(=O)([N-]S(=O)(=O)C(F)(F)F)C(F)(F)F | 28.9 ± 2 | 23.3 ± 1.6 | 24.3 ± 1.7
CCCCCCC [heptane] + Cn1cc[n+](COCCCOC[n+]2ccn(C)c2)c1.O=S(=O)([N-]S(=O)(=O)C(F)(F)F)C(F)(F)F.O=S(=O)([N-]S(=O)(=O)C(F)(F)F)C(F)(F)F | 53 ± 3.6 | 34 ± 2.3 | –
C=CCCCC [hex-1-ene] + CCCCCCCCn1cc[n+](COCCC)c1C.N#C[N-]C#N | 4.34 ± 0.3 | 4.37 ± 0.3 | 3.94 ± 0.27
C=CCCCC [hex-1-ene] + CCCCCCCCn1cc[n+](COCCC)c1C.O=S(=O)([N-]S(=O)(=O)C(F)(F)F)C(F)(F)F | 2.65 ± 0.18 | 2.38 ± 0.16 | 2.47 ± 0.17
C=CCCCC [hex-1-ene] + CCCCCCCCn1cc[n+](COCCCOC[n+]2ccn(CCCCCCCC)c2C)c1C.N#C[N-]C#N.N#C[N-]C#N | 4.93 ± 0.34 | 4.41 ± 0.3 | –
C=CCCCC [hex-1-ene] + CCCCCCCCn1cc[n+](COCCCOC[n+]2ccn(CCCCCCCC)c2C)c1C.O=S(=O)([N-]S(=O)(=O)C(F)(F)F)C(F)(F)F.O=S(=O)([N-]S(=O)(=O)C(F)(F)F)C(F)(F)F | 2.33 ± 0.16 | 2.51 ± 0.17 | 2.35 ± 0.16
C=CCCCC [hex-1-ene] + CCCOC[n+]1ccc(N(C)C)cc1.O=S(=O)([N-]S(=O)(=O)C(F)(F)F)C(F)(F)F | 6.62 ± 0.45 | 6.79 ± 0.46 | 5.24 ± 0.36
C=CCCCC [hex-1-ene] + CCCOC[n+]1ccn(C)c1.N#C[N-]C#N | 28 ± 1.9 | – | –
C=CCCCC [hex-1-ene] + CCCOC[n+]1ccn(Cc2ccccc2)c1.N#C[N-]C#N | 15.9 ± 1.1 | 14.8 ± 1 | –
C=CCCCC [hex-1-ene] + CCCOC[n+]1ccn(Cc2ccccc2)c1.O=S(=O)([N-]S(=O)(=O)C(F)(F)F)C(F)(F)F | 5.09 ± 0.35 | 4.32 ± 0.29 | 4.05 ± 0.28
C=CCCCC [hex-1-ene] + CN(C)c1cc[n+](COCCCOC[n+]2ccc(N(C)C)cc2)cc1.O=S(=O)([N-]S(=O)(=O)C(F)(F)F)C(F)(F)F.O=S(=O)([N-]S(=O)(=O)C(F)(F)F)C(F)(F)F | 9.4 ± 0.64 | 8.7 ± 0.59 | 7.95 ± 0.54
C=CCCCC [hex-1-ene] + Cn1cc[n+](COCCCOC[n+]2ccn(C)c2)c1.O=S(=O)([N-]S(=O)(=O)C(F)(F)F)C(F)(F)F.O=S(=O)([N-]S(=O)(=O)C(F)(F)F)C(F)(F)F | 15.1 ± 1 | 10.1 ± 0.69 | –
CCCCCC [hexane] + CCCCCCCCn1cc[n+](COCCC)c1C.N#C[N-]C#N | 7.08 ± 0.48 | 6.92 ± 0.47 | 6.8 ± 0.46
CCCCCC [hexane] + CCCCCCCCn1cc[n+](COCCC)c1C.O=S(=O)([N-]S(=O)(=O)C(F)(F)F)C(F)(F)F | 3.82 ± 0.26 | 3.74 ± 0.25 | 3.12 ± 0.21
CCCCCC [hexane] + CCCCCCCCn1cc[n+](COCCCOC[n+]2ccn(CCCCCCCC)c2C)c1C.N#C[N-]C#N.N#C[N-]C#N | 8.9 ± 0.6 | – | –
CCCCCC [hexane] + CCCCCCCCn1cc[n+](COCCCOC[n+]2ccn(CCCCCCCC)c2C)c1C.O=S(=O)([N-]S(=O)(=O)C(F)(F)F)C(F)(F)F.O=S(=O)([N-]S(=O)(=O)C(F)(F)F)C(F)(F)F | 3.74 ± 0.25 | 3.59 ± 0.24 | 3.45 ± 0.23
CCCCCC [hexane] + CCCOC[n+]1ccc(N(C)C)cc1.O=S(=O)([N-]S(=O)(=O)C(F)(F)F)C(F)(F)F | 11.9 ± 0.81 | 11 ± 0.75 | 10.1 ± 0.69
CCCCCC [hexane] + CCCOC[n+]1ccn(C)c1.O=S(=O)([N-]S(=O)(=O)C(F)(F)F)C(F)(F)F | 15.9 ± 1.1 | 13.3 ± 0.91 | –
CCCCCC [hexane] + CCCOC[n+]1ccn(Cc2ccccc2)c1.N#C[N-]C#N | 32.4 ± 2.2 | – | –
CCCCCC [hexane] + CCCOC[n+]1ccn(Cc2ccccc2)c1.O=S(=O)([N-]S(=O)(=O)C(F)(F)F)C(F)(F)F | 7.52 ± 0.51 | 7.21 ± 0.49 | 6.92 ± 0.47
CCCCCC [hexane] + CN(C)c1cc[n+](COCCCOC[n+]2ccc(N(C)C)cc2)cc1.O=S(=O)([N-]S(=O)(=O)C(F)(F)F)C(F)(F)F.O=S(=O)([N-]S(=O)(=O)C(F)(F)F)C(F)(F)F | 7.4 ± 0.5 | 5.82 ± 0.4 | 4.7 ± 0.32
